Experimental data: PMC3560935 (Anesthesiology, 2011)
“Also recorded” adds a separate entry of the source.

Legend:
[1] = target: human nociceptin receptor (Homo sapiens, UniProt P41146); format: binding
Swiss-Webster mice [2] = settings: mouse, in vivo
Swiss-Webster mice [3] = settings: mouse, in vivo; remark: listed apart in the source
[4] = mouse, in vivo
Swiss-Webster mice [5] = settings: mouse, in vivo; remark: listed apart in the source
[6] = administered intracerebroventricularly; cited from earlier work

Chain of human nociceptin receptor (P41146 whole entry): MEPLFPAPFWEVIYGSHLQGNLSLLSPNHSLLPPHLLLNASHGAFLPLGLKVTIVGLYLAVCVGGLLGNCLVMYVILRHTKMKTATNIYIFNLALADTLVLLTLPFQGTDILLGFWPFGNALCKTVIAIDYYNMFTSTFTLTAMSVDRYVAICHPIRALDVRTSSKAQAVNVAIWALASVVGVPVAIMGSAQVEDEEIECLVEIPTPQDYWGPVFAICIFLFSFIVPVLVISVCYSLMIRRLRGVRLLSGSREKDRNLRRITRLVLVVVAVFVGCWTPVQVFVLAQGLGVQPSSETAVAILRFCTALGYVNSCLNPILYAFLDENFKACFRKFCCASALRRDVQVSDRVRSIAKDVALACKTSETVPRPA

## CO[C@]12CC[C@@]3(C[C@@H]1[C@](C)(O)C(C)(C)C)[C@H]1Cc4ccc(O[C@@H]5O[C@H](C(=O)O)[C@@H](O)[C@H](O)[C@H]5O)c5c4[C@@]3(CCN1CC1CC1)[C@H]2O5 [Buprenorphine-3-glucuronide, buprenorphine-3-glucuronide]
[1]; read-out: apparent Ki, Nociceptin
  Ki: 36 ± 0.3 µM
Swiss-Webster mice [2]
  effect on minute ventilation (in words): Neither buprenorphine nor B3G affected
  effect on respiratory rate (in words): Neither B3G nor N3G had a significant effect
Swiss-Webster mice [3]
  antinociceptive effect (in words): small antinociceptive effect; also recorded: mild antinociceptive activity
[4]
  Concentration, Brain Homogenate: 1.4 ± 0.7 ng/mL
  Concentration, Plasma: 133 ± 44 ng/mL
Swiss-Webster mice [5]
  total locomotor activity compared to control / sedation (in words): did not cause a decrease

## CN1CC[C@]23c4c5ccc(O)c4O[C@H]2[C@@H](O[C@@H]2O[C@H](C(=O)O)[C@@H](O)[C@H](O)[C@H]2O)C=C[C@H]3[C@H]1C5 [Morphine-6-glucuronide]
[6]
  potency relative to morphine: 300 times

## Buprenorphine
[1]
  affinity for the nociceptin receptor (in words): low affinity
Swiss-Webster mice [3]
  dose with the greatest analgesic response: 0.3 mg/kg
  time to onset of antinociception: 30 min
  time to peak antinociceptive effect: 45 min
